This note sets out measurements from PMC6628235 (Marine Drugs, 2019).

Holding throughout (type): biochemical
Assay [1] addresses T1, butyrylcholinesterase (BuChE) (Equus caballus, UniProt P81908).
T1 construct: gene BCHE
The experiment in a line: modified Ellman's assay, % inhibition at […] (IC50 not determined). (In Ellman's method for cholinesterases, released thiocholine reacts with DTNB.)

Assay [2] concerns the target acetylcholinesterase (AChE) (Electrophorus electricus, UniProt O42275). The experiment in a line: modified Ellman's microplate assay ([…] inhibition at […]).
Assay [3] addresses T1, butyrylcholinesterase (BuChE). As to the kind of experiment: modified Ellman's assay, positive control, % inhibition at […] (IC50 not determined).

T1 sequence (P81908 whole entry): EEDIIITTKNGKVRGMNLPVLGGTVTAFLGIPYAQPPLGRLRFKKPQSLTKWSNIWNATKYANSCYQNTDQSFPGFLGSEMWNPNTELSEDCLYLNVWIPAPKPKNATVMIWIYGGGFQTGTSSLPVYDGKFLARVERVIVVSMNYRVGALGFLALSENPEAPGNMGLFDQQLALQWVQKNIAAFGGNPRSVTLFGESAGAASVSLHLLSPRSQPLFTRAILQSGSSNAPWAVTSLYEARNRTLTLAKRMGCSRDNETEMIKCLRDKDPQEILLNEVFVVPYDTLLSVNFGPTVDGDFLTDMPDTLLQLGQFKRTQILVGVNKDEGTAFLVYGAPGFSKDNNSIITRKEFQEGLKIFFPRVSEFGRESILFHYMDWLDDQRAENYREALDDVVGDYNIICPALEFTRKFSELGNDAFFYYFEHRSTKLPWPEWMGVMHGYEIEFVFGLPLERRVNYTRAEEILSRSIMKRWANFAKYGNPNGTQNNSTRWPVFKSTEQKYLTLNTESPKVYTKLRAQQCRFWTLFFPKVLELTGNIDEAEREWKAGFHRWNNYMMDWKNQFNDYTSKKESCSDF
Sequence of acetylcholinesterase (AChE) (O42275 24-633): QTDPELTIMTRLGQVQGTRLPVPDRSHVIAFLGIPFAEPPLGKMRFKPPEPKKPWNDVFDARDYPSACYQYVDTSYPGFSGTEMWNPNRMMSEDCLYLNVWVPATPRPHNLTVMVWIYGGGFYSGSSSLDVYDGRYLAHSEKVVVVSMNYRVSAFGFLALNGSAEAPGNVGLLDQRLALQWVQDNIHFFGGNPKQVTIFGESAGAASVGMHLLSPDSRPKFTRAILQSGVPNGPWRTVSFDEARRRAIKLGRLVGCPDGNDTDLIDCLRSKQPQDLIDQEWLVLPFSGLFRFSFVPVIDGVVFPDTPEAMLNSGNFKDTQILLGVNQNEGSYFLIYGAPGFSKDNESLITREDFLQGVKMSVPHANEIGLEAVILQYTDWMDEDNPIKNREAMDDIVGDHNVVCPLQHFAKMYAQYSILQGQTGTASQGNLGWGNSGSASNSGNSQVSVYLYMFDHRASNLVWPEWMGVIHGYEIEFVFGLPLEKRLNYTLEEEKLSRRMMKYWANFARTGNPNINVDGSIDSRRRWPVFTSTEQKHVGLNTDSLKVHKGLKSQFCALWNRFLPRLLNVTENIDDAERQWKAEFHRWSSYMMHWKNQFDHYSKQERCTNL

A word on the inhibition: it is the share of the control response that was lost under treatment. A higher inhibition goes with strong suppression. With `CC1=C[C@H](O)[C@]2(CC1=O)C[C@H](O)C(C)(C)O2` [compound 1, (3S, 5R, 10S)-3,10-dihydroxy-2,2,8-trimethyl-1-oxospiro[4.5]dec-8-en-7-one], testing at 6.25 µM in assay [1] gave an inhibition of 30.71 ± 0.21%.

One may read the IC50 as the point on the concentration scale where inhibition reaches its midpoint. Read a low IC50 as higher potency. `Cc1cc2nc3[nH]c(=O)[nH]c(=O)c3nc2cc1C` [compound 3, lumichrome] showed an IC50 in assay [2] of 12.24 ± 0.12 µM.

In the case of `COc1ccc2c3c1O[C@H]1C[C@@H](O)C=C[C@@]31CCN(C)C2` [galantamine], in assay [3], the “% inhibition at 6.25 μM” value stood at 10.34 ± 0.21.
